Measured values reported in patent US6451835B1, “Pesticidal fluoroethyl pyrazole derivatives” (Uniroyal Chemical Company, Inc., priority 2001, dated 2002).

tested on: rice delphacids, Sogatodes orizicola; assay: Rice planthopper foliar test (RPH); assay type: in vivo; settings: 1000 ppm spray on rice seedlings; adults added 1 day after treatment, counted five days after transferring
Method: (§1) Stock solutions of each of the compounds were prepared at 1000 ppm by dissolving 0.08 gram of each compound to be tested in 8 mL of acetone and adding 72 mL of distilled water plus 3 drops of ethoxylated sorbitan monolaurate, a wetting agent. […] For each example that follows, these stock solutions were used and the specified dilutions made. All the tests discussed below, which involved treatment with compounds of this invention, were always repeated with controls to permit a comparison upon which the percent control was calculated.
One thousand ppm of each stock solution of Example 2 was used for this test. One pot containing approximately 20 rice seedlings was treated with each formulation by spraying with a spray atomizer. One day after treatment, plants were covered with a tubular cage and 20 adult rice delphacids, Sogatodes orizicola, were transferred into each cage. Five days after transferring, counts were made of the surviving planthoppers in each pot and percent control was estimated.

In order of rising “Percent Control RPH” value:
1. FCCn1cc(-c2ccc(Cl)cc2)cn1 [Compound 2]  0%
2. FCCn1cc(-c2cccc(Br)c2)cn1 [Compound 4]  0%
3. FCCn1cc(-c2ccc(C(F)(F)F)cc2)cn1 [Compound 3]  0%
4. FCCn1cc(-c2ccc(Cl)c(Cl)c2)cn1 [Compound 5]  0%
5. FCCC1(c2ccccc2)C=NNC1 (stereo not drawn) [Compound 1, 4-(2-fluoroethyl)-4-phenyl-1H-pyrazole]  20%
6. FCCn1cc(-c2cccc(C(F)(F)F)c2)cn1 [Compound 6]  85%
7. FCCn1cc(-c2ccc(OC(F)(F)F)cc2)cn1 [Compound 7]  85%

tested on: Helicoverpa virescens larva; assay: Tobacco budworm test (TB); assay type: in vivo; settings: 0.2 mL of 1000 ppm stock solution on diet cell surface; second instar larva; after 14 days; corrected by Abbott's formula
Method: as §1
For each compound tested, 0.2 mL of each stock solution of Example 2 was pipetted onto the surfaces of each of five diet cells, allowed to spread over the surfaces, and air dried for two hours. Then, a second instar Helicoverpa virescens larva was introduced into each cell. After 14 days, the number of living larvae was determined for each treatment and percent control, corrected by Abbott's formula (J. Econ. Entomology (1925, 265-267), was calculated. The results of the testing of tobacco budworms (TB) are presented in Table 2.

In order of rising “Percent Control TB” value:
1. FCCn1cc(-c2cccc(C(F)(F)F)c2)cn1 [Compound 6]  0%
2. FCCn1cc(-c2ccc(OC(F)(F)F)cc2)cn1 [Compound 7]  0%
3. FCCn1cc(-c2ccc(Cl)c(Cl)c2)cn1 [Compound 5]  0%
4. FCCn1cc(-c2cccc(Br)c2)cn1 [Compound 4]  7%
5. FCCC1(c2ccccc2)C=NNC1 (stereo not drawn) [Compound 1, 4-(2-fluoroethyl)-4-phenyl-1H-pyrazole]  20%
6. FCCn1cc(-c2ccc(Cl)cc2)cn1 [Compound 2]  40%
7. FCCn1cc(-c2ccc(C(F)(F)F)cc2)cn1 [Compound 3]  100%

tested on: Tefranychus urticae Koch; assay: Mite adulticide test (MI); assay type: in vivo; settings: 1000 ppm spray to run off on cowpea leaves; adult mites added 1 day after treatment, read five days later
Method: (§2) Stock solutions of each of the compounds were prepared at 1000 ppm by dissolving 0.08 gram of each compound to be tested in 8 mL of acetone and adding 72 mL of distilled water plus 3 drops of ethoxylated sorbitan monolaurate, a wetting agent. […] For each example that follows, these stock solutions were used and the specified dilutions made. All the tests discussed below, which involved treatment with compounds of this invention, were always repeated with controls to permit a comparison upon which the percent control was calculated. One day before treatment of cowpea primary leaves with the test solutions, a “FIG. 8” configuration of tree tanglefoot was applied to each of two cowpea primary leaves, one from each of two plants in a pot. In each “Figure”, the circle nearer the stem was designated for the mite ovicide test and the circle farther from the stem was designated for the mite adulticide test. Groups of adult mites (Tefranychus urticae Koch) were transferred into ovicide circles one day before treatment and the females were allowed to deposit eggs until one hour before treatment, at which point all the adults were removed. The plants were then sprayed to run off with each 1000 ppm stock solution of Example 2. One day following treatment of the plants with the test solution, groups of approximately 25 adult mites were transferred into the adulticide rings. Five days later, these rings were examined for live mites remaining on the leaves. The percent control was estimated based on the number of mites surviving on the control plants. Nine days following treatment the ovicide rings were examined for unhatched eggs and living immature mites. The percent control was estimated based on the number of unhatched eggs.

In order of rising “Percent Control MI” value:
1. FCCn1cc(-c2cccc(C(F)(F)F)c2)cn1 [Compound 6]  0%
2. FCCn1cc(-c2ccc(OC(F)(F)F)cc2)cn1 [Compound 7]  0%
3. FCCn1cc(-c2ccc(C(F)(F)F)cc2)cn1 [Compound 3]  0%
4. FCCC1(c2ccccc2)C=NNC1 (stereo not drawn) [Compound 1, 4-(2-fluoroethyl)-4-phenyl-1H-pyrazole]  0%
5. FCCn1cc(-c2ccc(Cl)cc2)cn1 [Compound 2]  100%
6. FCCn1cc(-c2cccc(Br)c2)cn1 [Compound 4]  100%
7. FCCn1cc(-c2ccc(Cl)c(Cl)c2)cn1 [Compound 5]  100%

tested on: root knot nematode (Meloidogmne incognita); assay: Nematode test (NE); assay type: in vivo; settings: soil drench, soil concentration of 50 ppm; tomato seedling roots evaluated for galls nineteen days after planting
Method: Stock solutions of each of the compounds were prepared at 1000 ppm by dissolving 0.08 gram of each compound to be tested in 8 mL of acetone and adding 72 mL of distilled water plus 3 drops of ethoxylated sorbitan monolaurate, a wetting agent. […] For each example that follows, these stock solutions were used and the specified dilutions made. All the tests discussed below, which involved treatment with compounds of this invention, were always repeated with controls to permit a comparison upon which the percent control was calculated. One thousand ppm of each stock solution of Example 2 was used for this test. For each test solution, 25 mL was drenched onto separate 500 gram samples of soil infested with root knot nematode (Meloidogmne incognita) eggs in a pot, for a soil concentration of 50 ppm. One day after treatment, two tomato seedlings were planted in each pot. Nineteen days after planting, the roots were evaluated for the presence of knots or galls, and the percent control was estimated on the infestation levels in check plants.

In order of rising “Percent Control NE” value:
1. FCCn1cc(-c2ccc(C(F)(F)F)cc2)cn1 [Compound 3]  0%
2. FCCC1(c2ccccc2)C=NNC1 (stereo not drawn) [Compound 1, 4-(2-fluoroethyl)-4-phenyl-1H-pyrazole]  50%
3. FCCn1cc(-c2ccc(Cl)c(Cl)c2)cn1 [Compound 5]  60%
4. FCCn1cc(-c2cccc(C(F)(F)F)c2)cn1 [Compound 6]  100%
5. FCCn1cc(-c2ccc(OC(F)(F)F)cc2)cn1 [Compound 7]  100%
6. FCCn1cc(-c2ccc(Cl)cc2)cn1 [Compound 2]  100%
7. FCCn1cc(-c2cccc(Br)c2)cn1 [Compound 4]  100%

tested on: Tefranychus urticae Koch eggs; assay: Mite ovicide test (MIOV); assay type: in vivo; settings: 1000 ppm spray to run off on cowpea leaves; unhatched eggs read nine days following treatment
Method: as §2

In order of falling “Percent Control MIOV” value:
1. FCCn1cc(-c2cccc(C(F)(F)F)c2)cn1 [Compound 6]  100%
2. FCCn1cc(-c2ccc(OC(F)(F)F)cc2)cn1 [Compound 7]  100%
3. FCCn1cc(-c2ccc(Cl)cc2)cn1 [Compound 2]  100%
4. FCCn1cc(-c2cccc(Br)c2)cn1 [Compound 4]  100%
5. FCCC1(c2ccccc2)C=NNC1 (stereo not drawn) [Compound 1, 4-(2-fluoroethyl)-4-phenyl-1H-pyrazole]  100%
6. FCCn1cc(-c2ccc(Cl)c(Cl)c2)cn1 [Compound 5]  100%
7. FCCn1cc(-c2ccc(C(F)(F)F)cc2)cn1 [Compound 3]  0%

tested on: Southern Corn Rootworm (Diabrotica undecimpuncatat); assay: Southern corn rootworm test (CR); assay type: in vivo; settings: 100 ppm test solution, corn seedlings on filter paper; second instar larvae; after five days; corrected by Abbott's formula
Method: Stock solutions of each of the compounds were prepared at 1000 ppm by dissolving 0.08 gram of each compound to be tested in 8 mL of acetone and adding 72 mL of distilled water plus 3 drops of ethoxylated sorbitan monolaurate, a wetting agent. […] For each example that follows, these stock solutions were used and the specified dilutions made. All the tests discussed below, which involved treatment with compounds of this invention, were always repeated with controls to permit a comparison upon which the percent control was calculated. One thousand ppm of each stock solution of Example 2 was diluted to 100 ppm (the “test solution”). For each compound, 2.5 mL of each test solution was pipetted onto a filter paper (Whatman #3) at the bottom of a 100 mm petri dish. Two corn seedlings were soaked in the 100 ppm solution for one hour and transferred to the petri dish containing the same test solution. After 24 hours, each dish was loaded with 5 second instar larvae of Southern Corn Rootworm (Diabrotica undecimpuncatat). After five days, the number of live larvae was noted and the percent control, corrected by Abbott's formula, was calculated.

In order of rising “Percent Control CR” value:
1. FCCn1cc(-c2cccc(Br)c2)cn1 [Compound 4]  0%
2. FCCC1(c2ccccc2)C=NNC1 (stereo not drawn) [Compound 1, 4-(2-fluoroethyl)-4-phenyl-1H-pyrazole]  0%
3. FCCn1cc(-c2ccc(Cl)c(Cl)c2)cn1 [Compound 5]  63%
4. FCCn1cc(-c2cccc(C(F)(F)F)c2)cn1 [Compound 6]  100%
5. FCCn1cc(-c2ccc(OC(F)(F)F)cc2)cn1 [Compound 7]  100%
6. FCCn1cc(-c2ccc(Cl)cc2)cn1 [Compound 2]  100%
7. FCCn1cc(-c2ccc(C(F)(F)F)cc2)cn1 [Compound 3]  100%
